# From publication PMC5306082, “Physiologically based kinetic modeling of the bioactivation of myristicin” (Archives of Toxicology, 2016)
# Read-outs that look alike come from different tables or passages of the source.
# What was measured:
# [1] = Sulfonation of 1′-hydroxymyristicin, human liver S9; format: in vitro ADME
# Description: (§1) The formation of 1′-sulfoxymyristicin was determined using incubations containing male rat liver Sprague–Dawley or pooled gender human liver S9 proteins, PAPS as a cofactor, and GSH, which acts as a scavenger of the reactive carbocation formed due to the unstable nature of the 1′-sulfoxy metabolite in an aqueous environment (van den Berg et al. [2012]; Martati et al. [2011]; Al-Subeihi et al. [2011]). Incubation mixtures containing (final concentrations) 10 mM of GSH, 0.2 mM of PAPS, and 3 mg/ml of S9 proteins in 0.1 M potassium phosphate (pH 8.2) were pre-incubated for 1 min at 37 °C. After the pre-incubation, 1′-hydroxymyristicin dissolved in DMSO was added in final concentrations ranging between 10 and 6000 μM while keeping the final content of DMSO at 1 % (v/v). The reaction was terminated after 360 min of incubation by adding 25 μl (0.25 times the incubation volume) of ice-cold ACN. The formation of the GSH conjugate of 1′-sulfoxymyristicin was linear with time and S9 protein concentrations under the experimental conditions used. Blank incubations were performed in the absence of PAPS. Incubations were performed in triplicate. All samples were centrifuged for 5 min at 16,000×g, and the supernatant was stored at −20 °C until ultra-performance liquid chromatography (UPLC) analysis.
# (§2) Quantification of 1′-sulfoxymyristicin was done using UPLC analysis as described for the estimation of 1′-sulfoxysafrole (Martati et al. [2011]). […] The gradient for analysis of the metabolite consisted of a mixture of ACN and ultrapure water containing 0.1 % (v/v) TFA. The flow rate was 0.6 ml/min, starting at 0 % ACN and increasing the percentage of ACN to 20 % over 0.2 min, followed by an increase to 30 % ACN over 4.3 min, then increasing to 100 % over 0.3 min, and keeping it at 100 % for 0.2 min, and finally decreasing to 0 % over 0.2 min and keeping it at 0 % for 0.8 min. Separation and purification of the GSH adduct of 1′-sulfoxymyristicin was performed by collecting the peak of the metabolite from the UPLC column. […]
# [2] = Sulfonation of 1′-hydroxymyristicin, male rat liver S9; format: in vitro ADME
# Description: as §1, §2
# [3] = Microsomal conversion of myristicin, male rat liver microsomes; format: in vitro ADME
# Description: (§3) First, it was determined which organs are involved in the biotransformation of myristicin in rat and human. For this purpose, liver, kidney, lung, and small intestine microsomes from male Sprague–Dawley rat and pooled gender human were used. Incubations were performed by adding myristicin to incubation mixtures containing 1 mg/mL of the microsomal protein preparations and 3 mM NADPH in 0.2 M Tris–HCl (pH 7.4). After 1 min of pre-incubation at 37 °C, myristicin (final concentration, 1000 μM) was added from a 100 times concentrated stock solution in DMSO so that the final DMSO content was 1 % (v/v). Incubations were carried out for 30 min after which the reactions were terminated by adding 25 µl (0.25 times the incubation volume) of ice-cold ACN. Samples were centrifuged for 5 min at 13,000×g, and the supernatant was stored at −20 °C until UPLC analysis. As metabolism of myristicin was observed only in incubations with liver microsomes for male rats and pooled gender human, the determination of kinetic constants for the formation of microsomal metabolites was performed only for the liver fractions. Incubations to determine kinetic constants were performed following the conditions described above using final concentrations of myristicin from 25 to 1000 μM for rat and human liver. In all incubations, the final concentration of DMSO, in which myristicin was dissolved, was kept at 1 % (v/v). The formation of different microsomal metabolites was linear with time and microsomal protein concentration under the conditions described. Blank incubations were performed in the absence of the cofactor NADPH. All incubations were performed in triplicate.
# (§4) Secondary metabolism of the relevant 1′-hydroxy metabolite of myristicin was taken into account by determining the kinetic constants for its conversion in (a) glucuronidation, (b) sulfation, and (c) oxidation, again under conditions that allowed adequate definition of kinetic constants and with <10 % substrate conversion. Incubation samples were subjected to UPLC analysis that was performed as described previously (Punt et al. [2008]). Identification was achieved by comparing the UV spectra of the formed metabolites to the spectra of the synthesized 1′-hydroxymyristicin and 1′-oxomyristicin reference standards. Quantification of all formed metabolites was done by comparing the peak areas to those of calibration curves of the corresponding reference compounds, determined using UPLC with photodiode array detection (UPLC-PDA). The UPLC system was composed of a Waters (Waters, Milford, MA) Acquity solvent manager, sample manager, and photodiode array detector, equipped with Water Acquity UPLC BEH C18 column.
# (§5) The gradient for analysis of microsomal metabolites was performed with 100 % ACN and ultrapure water containing 0.1 % (v/v) TFA. The flow rate was 0.6 ml/min. The gradient started at 10 % ACN, increased to 50 % ACN over 4 min, increased to 80 % over 0.5 min, followed by decrease to 10 % ACN over 0.5 min, and finally kept at 10 % for 1 min.
# rat urine = system: rat urine; set-up: method as in Beyer et al. [2006]; details: single oral dose 100 mg/kg bw myristicin, urine over 24 h; ref Beyer et al. [2006]; cited from earlier work
# [4] = Microsomal conversion of myristicin, human liver microsomes; format: in vitro ADME
# Description: as §3, §4, §5
# DNA = details: ref Zhou et al. [2007a]; Kobets et al. [2016]; Phillips et al. [1984]; Randerath et al. [1984]; cited from earlier work
# [5] = Metabolism of myristicin by human small intestine, lung, kidney microsomes; format: in vitro ADME; details: 1000 μM myristicin, 1 mg/mL microsomal protein, NADPH, 30 min
# Description: as §3, with “The formation of different microsomal metabolites was linear with time and microsomal protein concentration under the conditions described. Blank incubations were performed in the absence of the cofactor NADPH. All incubations were performed in triplicate.” left out
# [6] = ref EFSA [2012]; Zhou et al. [2007b]; cited from earlier work
# [7] = Metabolism of myristicin by rat small intestine, lung, kidney microsomes; format: in vitro ADME; details: 1000 μM myristicin, 1 mg/mL microsomal protein, NADPH, 30 min
# Description: as §3, with “The formation of different microsomal metabolites was linear with time and microsomal protein concentration under the conditions described. Blank incubations were performed in the absence of the cofactor NADPH. All incubations were performed in triplicate.” left out
# [8] = uptake from GI tract, assumed from fast and complete absorption of safrole; ref Punt et al. [2008]; cited from earlier work
# [9] = system: Cultured human HepG2 cells; details: harvested after 24 h, ref Zhou et al. (2007a), cited from earlier work
# Mouse liver CD-1 = details: cited from earlier work; for pmol Adduct/mg DNA: female, livers 24 h after treatment
# [10] = system: freshly isolated rat hepatocytes in primary culture; details: 10^−6 to 10^−3 M; ref Howes et al. [1990]; cited from earlier work
# New born mice B6C3F1 = details: male, injections on days 1, 8, 15, 22 after birth, ref Phillips et al. (1984), cited from earlier work
# pregnant ICR mice = details: single dose of 6 mg myristicin by gastric intubation; ref Randerath et al. [1993]; cited from earlier work
# male B6C3F1 mice = details: total dose 3.75 or 4.75 µmol injected over 22 days, 12 or 18 months; ref Miller et al. [1983]; cited from earlier work
# [11] = Margin of exposure (MOE) risk assessment; details: BMDL10 of safrole
# Description: The margin-of-exposure (MOE) concept was applied to assess the possible risks for human health resulting from the daily exposure to myristicin (JECFA [2005]; EFSA [2005]; Barlow et al. [2006]; O’Brien et al. [2006]). The MOE is a dimensionless ratio based on a reference point representing a dose causing a low but measurable cancer incidence in experimental animals (e.g., a BMDL10), which is divided by the estimated daily intake in humans (EFSA [2005]). […] The estimated daily intake of safrole from spice and spice oil in the USA amounts to 0.001 mg/kg bw per day (WHO [2009]).
# experimental animals = details: tumor formation; ref van den Berg et al. [2011]; cited from earlier work
# rats or mice = details: chronic oral exposure to high doses, or male CD-1 mice preweaning; ref Borchert et al. [1973]; Drinkwater et al. [1976]; National Toxicology [2000]; cited from earlier work
# [12] = S9 protein yield 143 mg/g liver
# [13] = formation of the metabolite from myristicin, NADPH, mean of three ± SD
# [14] = formation of the metabolite from myristicin, Vmax/Km × 1000
# [15] = from myristicin, scaled Vmax/Km
# [16] = 80 mg/kg bw i.p., ref Randerath et al. (1984)
# [17] = 400 mg/kg bw i.p., ref Randerath et al. (1984)
smiles,measurement,setting,value
"C=CC(OS(=O)(=O)O)c1cc(OC)c2c(c1)OCO2 (stereo not shown) [1′-Sulfoxymyristicin, 1′-sulfoxymyristicin]","k, first-order rate constant for product formation","[1]; S9, PAPS, GSH trapping",16.3 × 10^−6 ml/min/mg protein
same,k Scaled,[1]; [12],0.14 ml/hr/g tissue
same,"k, first-order rate constant for product formation","[2]; S9, PAPS, GSH trapping",17.6 × 10^−6 ml/min/mg protein
same,k Scaled,[2]; [12],0.15 ml/hr/g tissue
"C=CCc1cc(O)c(O)c(OC)c1 [5-Allyl-2,3-dihydroxyanisole, 5-allyl-2,3-dihydroxyanisole]",Vmax,[3]; [13],1.3 ± 0.23 nmol min^−1 (mg microsomal or S9 protein)^−1
same,In vitro catalytic efficiency,[3]; [14],39.394 μl min^−1 (mg microsomal or S9 protein)^−1
same,"Scaled Vmax, in vivo","[3]; from myristicin, microsomal protein yield 35 mg/g liver",2.73 μmol/h/g tissue
same,In vivo catalytic efficiency,[3]; [15],0.0827 ml/h/g tissue
same,"catalytic efficiency, fold higher than for formation of 3′-hydroxymyristicin",[3]; male rat liver microsomes,approximately sevenfold
same,"metabolite in rat urine, percentage of the total dose",rat urine,67 % of the total dose
same,Vmax,[4]; [13],0.93 ± 0.13 nmol min^−1 (mg microsomal or S9 protein)^−1
same,In vitro catalytic efficiency,[4]; [14],7.881 μl min^−1 (mg microsomal or S9 protein)^−1
same,"Scaled Vmax, in vivo","[4]; from myristicin, microsomal protein yield 32 mg/g liver",1.786 μmol/h/g tissue
same,In vivo catalytic efficiency,[4]; [15],0.0151 ml/h/g tissue
"C=CCc1cc(OC)c2c(c1)OCO2 [Myristicin, 1-allyl-5-methoxy-3,4 methylene-dioxybenzene]","DNA adduct formation, result",DNA,positive results
same,"metabolism of myristicin in small intestine, lung, or kidney microsomes",[5],no detectable metabolism
same,in vitro genotoxicity,[6],mutagenic
same,"metabolism of myristicin in small intestine, lung, or kidney microsomes",[7],no detectable metabolism
same,absorption rate constant (ka),[8],1.0 h⁻¹
same,pmol Adduct/mg DNA,[9]; 50 uM,0.017 pmol Adduct/mg DNA
same,pmol Adduct/mg DNA,[9]; 150 uM,0.049 pmol Adduct/mg DNA
same,pmol Adduct/mg DNA,[9]; 450 uM,0.165 pmol Adduct/mg DNA
same,pmol Adduct/mg DNA,Mouse liver CD-1; [16],16.8 pmol Adduct/mg DNA
same,pmol Adduct/mg DNA,Mouse liver CD-1; [17],49.5 pmol Adduct/mg DNA
same,cytotoxicity,[10],showed cytotoxicity
same,pmol Adduct/mg DNA,New born mice B6C3F1; 36.5 mg/kg bw i.p.,7.8 pmol Adduct/mg DNA
same,level of myristicin adducts in fetal liver,pregnant ICR mice,63 % of the total adducts
same,level of myristicin adducts in maternal liver,pregnant ICR mice,68 % of the total adducts
same,activity for the initiation of hepatic tumors,male B6C3F1 mice,no detectable activity
same,MOE,[11]; estimated daily intake of myristicin 0.0019 mg/kg bw per day from herbs and spices,1000–2684
"C=CCc1ccc2c(c1)OCO2 [Safrole, safrole]","DNA adduct formation, result",DNA,positive results
same,pmol Adduct/mg DNA,[9]; 150 uM,0.083 pmol Adduct/mg DNA
same,pmol Adduct/mg DNA,[9]; 450 uM,0.102 pmol Adduct/mg DNA
same,pmol Adduct/mg DNA,Mouse liver CD-1; [16],45.9 pmol Adduct/mg DNA
same,pmol Adduct/mg DNA,Mouse liver CD-1; [17],203.4 pmol Adduct/mg DNA
same,DNA adduct after 140 days (persistence),"Mouse liver CD-1; 400 mg/kg bw safrole, liver 140 days after treatment, ref Randerath et al. (1984)","After admin. of dose 400 mg/kg bw safrole, livers were taken after 24 h, 28, 58, 98, and 140 days after each treatment, after 140 days adduct was 21 pmol/mg DNA"
same,"DNA adduct formation in the liver, times higher for safrole than myristicin","Mouse liver CD-1; mice, i.p. injection, ref Randerath et al. [1984]",2.7 times
same,BMDL10,experimental animals,1.9–5.1 mg/kg bw per day
same,cytotoxicity,[10],cytotoxicity
same,unscheduled DNA synthesis (UDS),[10],induced unscheduled DNA synthesis (UDS)
same,pmol Adduct/mg DNA,New born mice B6C3F1; 30.8 mg/kg bw i.p.,17.5 pmol Adduct/mg DNA
same,induction of hepatic tumors,rats or mice,induce hepatic tumors
same,MOE,[11]; estimated daily intake of safrole 0.001 mg/kg bw per day from spice and spice oil in the USA,1900–5100
